In patent publication US20260132164A1, “PNU ANTHRACYCLINE DERIVATIVES AND METHODS OF USE THEREOF” (Merck Sharp & Dohme LLC, priority 2022, published 2026):

Tested on: BxPC3
Experiment: CellTiter-Glo 2.0 Cytotoxicity Assay
Format: cell-based
Details: Homo sapiens, BXPC-3, CellTiter-Glo 2.0 luminescence; compound added day 1, read on day 4 or 5; 3000 cells/well

Compound | EC50 [nM]
COc1cccc2c1C(=O)c1c(O)c3c(c(O)c1C2=O)C[C@@](O)(C(=O)NCc1ccc(CN)cc1)C[C@@H]3O[C@H]1C[C@H]2[C@H](O[C@@H]3[C@@H](OC)OCCN32)[C@H](C)O1 [Compound 41] | 0.42
COc1cccc2c1C(=O)c1c(O)c3c(c(O)c1C2=O)C[C@@](O)(C(=O)N[C@H]1C[C@H](N)C1)C[C@@H]3O[C@H]1C[C@H]2[C@H](O[C@@H]3[C@@H](OC)OCCN32)[C@H](C)O1 [Compound 42] | 12
COc1cccc2c1C(=O)c1c(O)c3c(c(O)c1C2=O)C[C@@](O)(C(=O)NC[C@H]1C[C@H](N)C1)C[C@@H]3O[C@H]1C[C@H]2[C@H](O[C@@H]3[C@@H](OC)OCCN32)[C@H](C)O1 [Compound 43] | 2.2
COc1cccc2c1C(=O)c1c(O)c3c(c(O)c1C2=O)C[C@@](O)(C(=O)NC12CC(CN)(C1)C2)C[C@@H]3O[C@H]1C[C@H]2[C@H](O[C@@H]3[C@@H](OC)OCCN32)[C@H](C)O1 [Compound 44] | 4.8
COc1cccc2c1C(=O)c1c(O)c3c(c(O)c1C2=O)C[C@@](O)(C(=O)NCC[C@H]1CCCN1)C[C@@H]3O[C@H]1C[C@H]2[C@H](O[C@@H]3[C@@H](OC)OCCN32)[C@H](C)O1 [Compound 45] | 0.6
COc1cccc2c1C(=O)c1c(O)c3c(c(O)c1C2=O)C[C@@](O)(C(=O)NC1CC2(CNC2)C1)C[C@@H]3O[C@H]1C[C@H]2[C@H](O[C@@H]3[C@@H](OC)OCCN32)[C@H](C)O1 [Compound 46] | 18
COc1cccc2c1C(=O)c1c(O)c3c(c(O)c1C2=O)C[C@@](O)(C(=O)NCC1CNC1)C[C@@H]3O[C@H]1C[C@H]2[C@H](O[C@@H]3[C@@H](OC)OCCN32)[C@H](C)O1 [Compound 47] | 9.4
COc1cccc2c1C(=O)c1c(O)c3c(c(O)c1C2=O)C[C@@](O)(C(=O)NCCN(C)C(=O)C1(N)CCCC1)C[C@@H]3O[C@H]1C[C@H]2[C@H](O[C@@H]3[C@@H](OC)OCCN32)[C@H](C)O1 [Compound 48] | 0.31
COc1cccc2c1C(=O)c1c(O)c3c(c(O)c1C2=O)C[C@@](O)(C(=O)NCCC1(N)COC1)C[C@@H]3O[C@H]1C[C@H]2[C@H](O[C@@H]3[C@@H](OC)OCCN32)[C@H](C)O1 [Compound 51] | 0.18
COc1cccc2c1C(=O)c1c(O)c3c(c(O)c1C2=O)C[C@@](O)(C(=O)NCCN(C)C(=O)[C@@](C)(N)C(C)C)C[C@@H]3O[C@H]1C[C@H]2[C@H](O[C@@H]3[C@@H](OC)OCCN32)[C@H](C)O1 [Compound 52] | 1.9
COc1cccc2c1C(=O)c1c(O)c3c(c(O)c1C2=O)C[C@@](O)(C(=O)N[C@H]1C[C@@H](N)C1)C[C@@H]3O[C@H]1C[C@H]2[C@H](O[C@@H]3[C@@H](OC)OCCN32)[C@H](C)O1 [Compound 53] | 7.7
COc1cccc2c1C(=O)c1c(O)c3c(c(O)c1C2=O)C[C@@](O)(C(=O)NCCCCN)C[C@@H]3O[C@H]1C[C@H]2[C@H](O[C@@H]3[C@@H](OC)OCCN32)[C@H](C)O1 [Compound 54] | 1.4
COc1cccc2c1C(=O)c1c(O)c3c(c(O)c1C2=O)C[C@@](O)(C(=O)N[C@H]1C[C@@H](CN)C1)C[C@@H]3O[C@H]1C[C@H]2[C@H](O[C@@H]3[C@@H](OC)OCCN32)[C@H](C)O1 [Compound 55] | 10.2
COc1cccc2c1C(=O)c1c(O)c3c(c(O)c1C2=O)C[C@@](O)(C(=O)NCC(C)(C)CN)C[C@@H]3O[C@H]1C[C@H]2[C@H](O[C@@H]3[C@@H](OC)OCCN32)[C@H](C)O1 [Compound 56] | 1.4
COc1cccc2c1C(=O)c1c(O)c3c(c(O)c1C2=O)C[C@@](O)(C(=O)NC12CNCC1C2)C[C@@H]3O[C@H]1C[C@H]2[C@H](O[C@@H]3[C@@H](OC)OCCN32)[C@H](C)O1 (stereo partly shown) [Compound 57] | 1.6
COc1cccc2c1C(=O)c1c(O)c3c(c(O)c1C2=O)C[C@@](O)(C(=O)NC[C@@H]1CCNC1)C[C@@H]3O[C@H]1C[C@H]2[C@H](O[C@@H]3[C@@H](OC)OCCN32)[C@H](C)O1 [Compound 58] | 3.9
COc1cccc2c1C(=O)c1c(O)c3c(c(O)c1C2=O)C[C@@](O)(C(=O)N[C@H]1CC[C@H](N)CC1)C[C@@H]3O[C@H]1C[C@H]2[C@H](O[C@@H]3[C@@H](OC)OCCN32)[C@H](C)O1 [Compound 59] | 6.3
COc1cccc2c1C(=O)c1c(O)c3c(c(O)c1C2=O)C[C@@](O)(C(=O)NC12CC(NC(=O)CO)(C1)C2)C[C@@H]3O[C@H]1C[C@H]2[C@H](O[C@@H]3[C@@H](OC)OCCN32)[C@H](C)O1 [Compound 60] | 0.55
COc1cccc2c1C(=O)c1c(O)c3c(c(O)c1C2=O)C[C@@](O)(C(=O)NCC(C)(C)N)C[C@@H]3O[C@H]1C[C@H]2[C@H](O[C@@H]3[C@@H](OC)OCCN32)[C@H](C)O1 [Compound 61, (2S,4S)—N-(2-amino-2-methylpropyl)-2,5,12-trihydroxy-7-methoxy-4-(((1S,3R,4aS,9S,9aR,10aS)-9-methoxy-1-methyloctahydro-1H-pyrano[4′,3′:4,5]oxazolo[2,3-c][1,4]oxazin-3-yl)oxy)-6,11-dioxo-1,2,3,4,6,11-hexahydrotetracene-2-carboxamide] | 8.7
COc1cccc2c1C(=O)c1c(O)c3c(c(O)c1C2=O)C[C@@](O)(C(=O)NCCN1C(=O)CNC1=O)C[C@@H]3O[C@H]1C[C@H]2[C@H](O[C@@H]3[C@@H](OC)OCCN32)[C@H](C)O1 [Compound 62] | 0.19

Compound | EC50 [nM]
COc1cccc2c1C(=O)c1c(O)c3c(c(O)c1C2=O)C[C@@](O)(C(=O)NCCN1CCNC1=O)C[C@@H]3O[C@H]1C[C@H]2[C@H](O[C@@H]3[C@@H](OC)OCCN32)[C@H](C)O1 [Compound 63] | 0.14
COc1cccc2c1C(=O)c1c(O)c3c(c(O)c1C2=O)C[C@@](O)(C(=O)NCC1(N)CC1)C[C@@H]3O[C@H]1C[C@H]2[C@H](O[C@@H]3[C@@H](OC)OCCN32)[C@H](C)O1 [Compound 64] | 0.49
COc1cccc2c1C(=O)c1c(O)c3c(c(O)c1C2=O)C[C@@](O)(C(=O)NCC(N)C(F)(F)F)C[C@@H]3O[C@H]1C[C@H]2[C@H](O[C@@H]3[C@@H](OC)OCCN32)[C@H](C)O1 (stereo partly shown) [Compound 65] | 0.16
COc1cccc2c1C(=O)c1c(O)c3c(c(O)c1C2=O)C[C@@](O)(C(=O)N1CCNCC1)C[C@@H]3O[C@H]1C[C@H]2[C@H](O[C@@H]3[C@@H](OC)OCCN32)[C@H](C)O1 [Compound 68] | 8.1
COc1cccc2c1C(=O)c1c(O)c3c(c(O)c1C2=O)C[C@@](O)(C(=O)NCC(N)C(F)F)C[C@@H]3O[C@H]1C[C@H]2[C@H](O[C@@H]3[C@@H](OC)OCCN32)[C@H](C)O1 (stereo partly shown) [Compound 69] | 0.16
COc1cccc2c1C(=O)c1c(O)c3c(c(O)c1C2=O)C[C@@](O)(C(=O)NCc1cnc(N)o1)C[C@@H]3O[C@H]1C[C@H]2[C@H](O[C@@H]3[C@@H](OC)OCCN32)[C@H](C)O1 [Compound 70] | 0.095
COc1cccc2c1C(=O)c1c(O)c3c(c(O)c1C2=O)C[C@@](O)(C(=O)N[C@@H]1CCC[C@H]1N)C[C@@H]3O[C@H]1C[C@H]2[C@H](O[C@@H]3[C@@H](OC)OCCN32)[C@H](C)O1 [Compound 71] | 8.4
COc1cccc2c1C(=O)c1c(O)c3c(c(O)c1C2=O)C[C@@](O)(C(=O)NCc1ccc(N)nc1)C[C@@H]3O[C@H]1C[C@H]2[C@H](O[C@@H]3[C@@H](OC)OCCN32)[C@H](C)O1 [Compound 72] | 0.08
COc1cccc2c1C(=O)c1c(O)c3c(c(O)c1C2=O)C[C@@](O)(C(=O)NCCC(N)C(F)(F)F)C[C@@H]3O[C@H]1C[C@H]2[C@H](O[C@@H]3[C@@H](OC)OCCN32)[C@H](C)O1 (stereo partly shown) [Compound 73] | 0.2
COc1cccc2c1C(=O)c1c(O)c3c(c(O)c1C2=O)C[C@@](O)(C(=O)NCCC(N)C(F)F)C[C@@H]3O[C@H]1C[C@H]2[C@H](O[C@@H]3[C@@H](OC)OCCN32)[C@H](C)O1 (stereo partly shown) [Compound 74] | 0.2
COc1cccc2c1C(=O)c1c(O)c3c(c(O)c1C2=O)C[C@@](O)(C(=O)N1C[C@H]2CN[C@H]2C1)C[C@@H]3O[C@H]1C[C@H]2[C@H](O[C@@H]3[C@@H](OC)OCCN32)[C@H](C)O1 [Compound 75] | 2.9
COc1cccc2c1C(=O)c1c(O)c3c(c(O)c1C2=O)C[C@@](O)(C(=O)N1C[C@@H]2CN[C@@H]2C1)C[C@@H]3O[C@H]1C[C@H]2[C@H](O[C@@H]3[C@@H](OC)OCCN32)[C@H](C)O1 [Compound 76] | 15
COc1cccc2c1C(=O)c1c(O)c3c(c(O)c1C2=O)C[C@@](O)(C(=O)Nc1ccc(N)cc1)C[C@@H]3O[C@H]1C[C@H]2[C@H](O[C@@H]3[C@@H](OC)OCCN32)[C@H](C)O1 [Compound 77] | 0.11
COc1cccc2c1C(=O)c1c(O)c3c(c(O)c1C2=O)C[C@@](O)(C(=O)NCc1ccc(O)cc1)C[C@@H]3O[C@H]1C[C@H]2[C@H](O[C@@H]3[C@@H](OC)OCCN32)[C@H](C)O1 [Compound 78] | 0.056
COc1cccc2c1C(=O)c1c(O)c3c(c(O)c1C2=O)C[C@@](O)(C(=O)NCc1ccccc1N)C[C@@H]3O[C@H]1C[C@H]2[C@H](O[C@@H]3[C@@H](OC)OCCN32)[C@H](C)O1 [Compound 79] | 0.15
COc1cccc2c1C(=O)c1c(O)c3c(c(O)c1C2=O)C[C@@](O)(C(=O)N[C@H]1CCC[C@@H]1N)C[C@@H]3O[C@H]1C[C@H]2[C@H](O[C@@H]3[C@@H](OC)OCCN32)[C@H](C)O1 [Compound 80] | 14.1
COc1cccc2c1C(=O)c1c(O)c3c(c(O)c1C2=O)C[C@@](O)(C(=O)Nc1cc(N)n(C)n1)C[C@@H]3O[C@H]1C[C@H]2[C@H](O[C@@H]3[C@@H](OC)OCCN32)[C@H](C)O1 [Compound 81] | 0.4
COc1cccc2c1C(=O)c1c(O)c3c(c(O)c1C2=O)C[C@@](O)(C(=O)NCc1nc(N)cn1C)C[C@@H]3O[C@H]1C[C@H]2[C@H](O[C@@H]3[C@@H](OC)OCCN32)[C@H](C)O1 [Compound 82] | 0.26
COc1cccc2c1C(=O)c1c(O)c3c(c(O)c1C2=O)C[C@@](O)(C(=O)Nc1ccc(CN)cc1)C[C@@H]3O[C@H]1C[C@H]2[C@H](O[C@@H]3[C@@H](OC)OCCN32)[C@H](C)O1 [Compound 83] | 11
COc1cccc2c1C(=O)c1c(O)c3c(c(O)c1C2=O)C[C@@](O)(C(=O)NCC12CC(N)(C1)C2)C[C@@H]3O[C@H]1C[C@H]2[C@H](O[C@@H]3[C@@H](OC)OCCN32)[C@H](C)O1 [Compound 84] | 0.61
